This assay deals with T1, 5-HT6R (5-hydroxytryptamine6 receptor, serotonin 6 receptor) (Homo sapiens, UniProt P50406).
T1 construct: gene HTR6
The assay is described as follows: radioligand competition with [3H]-LSD; supported by cAMP accumulation in […] cells with human 5-HT6R plasmid. Format: binding. Background: Displacement assays read how much labelled ligand stays bound in the presence of the test substance.

Results on one compound are retold here after paper PMC7596714, “Acute EPA-induced learning and memory impairment in mice is prevented by DHA” (Nature Communications, 2020).

T1 sequence (P50406 whole entry): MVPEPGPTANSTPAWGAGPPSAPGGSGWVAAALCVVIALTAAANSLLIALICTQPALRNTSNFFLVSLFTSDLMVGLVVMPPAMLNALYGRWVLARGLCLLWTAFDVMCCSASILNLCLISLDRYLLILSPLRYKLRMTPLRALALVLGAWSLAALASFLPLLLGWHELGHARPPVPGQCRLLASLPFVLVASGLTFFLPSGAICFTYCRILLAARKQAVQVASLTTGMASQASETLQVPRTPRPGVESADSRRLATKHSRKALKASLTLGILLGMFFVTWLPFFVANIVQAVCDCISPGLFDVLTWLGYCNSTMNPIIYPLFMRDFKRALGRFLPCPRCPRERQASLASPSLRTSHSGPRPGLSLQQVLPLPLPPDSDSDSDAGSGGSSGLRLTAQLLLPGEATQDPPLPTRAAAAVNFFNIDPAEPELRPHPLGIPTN

Compound `CC/C=C\C/C=C\C/C=C\C/C=C\C/C=C\CCCC(=O)O` [EPA, Eicosapentaenoic acid] gave an IC50 of 26.6 µM.

In general, IC50 refers to the point on the concentration scale where inhibition reaches its midpoint.
